Assay results as given in ChEMBL document CHEMBL5365393, “Comprehensive coverage on anti-mycobacterial endeavour reported during 2022” (Eur J Med Chem, 2023).
pIC50: −log10 of the molar value. Converted amounts (≈) assume the structure as drawn. “And” between values parts separate entries of the source, which are not always exact repeats. Equal values may be shown once. The source made the active and inactive calls. The rule behind the calls is not given here.

Assays:
[1] = test system: Mycobacterium tuberculosis; test: Antibacterial activity against Mycobacterium tuberculosis H37Rv assessed as inhibition of bacterial growth by microplate alamar blue assay; format: functional
[2] = biological target: T1, Thymidylate kinase (Mycobacterium tuberculosis, UniProt P9WKE1); test: Inhibition of Mycobacterium tuberculosis TMPK
T1 sequence (P9WKE1 whole entry): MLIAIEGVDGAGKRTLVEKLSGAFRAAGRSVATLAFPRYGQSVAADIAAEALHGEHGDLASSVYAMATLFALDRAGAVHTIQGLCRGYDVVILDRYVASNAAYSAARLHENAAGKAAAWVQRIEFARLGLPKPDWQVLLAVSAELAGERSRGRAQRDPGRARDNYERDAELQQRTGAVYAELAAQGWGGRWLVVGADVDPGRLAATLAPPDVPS

[3] = test system: Mycobacterium tuberculosis; test: Antibacterial activity against Mycobacterium tuberculosis H37Rv assessed as inhibition of bacterial growth; format: functional, organism-based
[4] = test system: Mycobacterium tuberculosis; test: Antibacterial activity against drug-sensitive Mycobacterium tuberculosis assessed as inhibition of bacterial growth; format: functional
[5] = biological target: T2, Enoyl-[acyl-carrier-protein] reductase [NADH] (Mycobacterium tuberculosis, UniProt P9WGR1); test: Inhibition of Mycobacterium tuberculosis InhA
T2 sequence (P9WGR1 whole entry): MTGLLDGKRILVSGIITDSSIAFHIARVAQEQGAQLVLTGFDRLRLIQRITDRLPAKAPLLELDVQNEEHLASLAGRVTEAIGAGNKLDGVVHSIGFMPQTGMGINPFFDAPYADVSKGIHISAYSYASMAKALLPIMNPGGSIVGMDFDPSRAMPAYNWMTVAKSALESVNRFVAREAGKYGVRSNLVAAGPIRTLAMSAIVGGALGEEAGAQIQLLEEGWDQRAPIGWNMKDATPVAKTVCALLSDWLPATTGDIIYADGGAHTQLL

[6] = test system: Mycobacterium tuberculosis; test: Antibacterial activity against wild-type Mycobacterium tuberculosis H37Rv assessed as inhibition of bacterial growth; format: functional
[7] = test system: Mycobacterium tuberculosis; test: Antibacterial activity against Mycobacterium tuberculosis H37Rv assessed as inhibition of bacterial growth by resazurin dye based colorimetric analysis; format: functional, organism-based
[8] = test system: Staphylococcus aureus; test: Antibacterial activity against methicillin-resistant Staphylococcus aureus 693E assessed as inhibition of bacterial growth by broth microdilution assay; format: functional
[9] = test system: Mycobacterium tuberculosis; test: Antibacterial activity against Mycobacterium tuberculosis H37Rv assessed as inhibition of bacterial growth by broth microdilution assay; format: functional
[10] = test system: Mycobacterium tuberculosis; test: Antibacterial activity against drug susceptible Mycobacterium tuberculosis H37Rv assessed as inhibition of bacterial growth; format: functional
[11] = test system: Mycobacterium tuberculosis; test: Antibacterial activity against Mycobacterium tuberculosis H37Rv assessed as bacterial growth inhibition at less than 6.25 ug/ml relative to control; format: functional; conditions: read-out: GI
[12] = Microsomal stability in human liver microsomes assessed as half life at 0.1 uM incubated for 60 mins in presence of NADPH by LC-MS/MS analysis; format: ADME, Microsome
[13] = test system: Mycobacterium tuberculosis; test: Antibacterial activity against Mycobacterium tuberculosis H37Rv ATCC 27294 assessed as inhibition of bacterial growth; format: functional
[14] = test system: Mycobacterium tuberculosis; test: Antibacterial activity against Mycobacterium tuberculosis assessed as inhibition of bacterial growth by microplate alamar blue assay; format: functional
[15] = Cytotoxicity against human WI-38 cells assessed as inhibition of cell growth by MTT assay; format: toxicity, cell-based
[16] = Cytotoxicity against African green monkey Vero cells assessed as inhibition of cell growth; format: toxicity, cell-based; conditions: African green monkey (Chlorocebus sabaeus)
[17] = test system: Mycobacterium tuberculosis; test: Antibacterial activity against Mycobacterium tuberculosis H37Rv infected in Macrophage assessed as reduction in bacterial growth; format: functional
[18] = Selectivity index, ratio of IC50 for cytotoxicity against African green monkey Vero cells to MIC for antibacterial activity against Mycobacterium tuberculosis H37Rv; format: toxicity, cell-based; conditions: read-out: Selectivity Index
[19] = Inhibition of Mycobacterium tuberculosis salicylate synthase using chorismic acid as substrate in presence of MgCl2 by fluorimetric assay
[20] = test system: RAW264.7; test: Cytotoxicity against mouse RAW264.7 cells assessed as cell growth inhibition by MTT assay relative to control; format: functional
[21] = test system: Mycobacterium tuberculosis; test: Antibacterial activity against Mycobacterium tuberculosis assessed as inhibition of bacterial growth; format: functional, organism-based
[22] = test system: Mycobacterium tuberculosis; test: Inhibition of Mycobacterium tuberculosis H37Rv mc2 6206 HadB/C expressed in Escherichia coli using trans-2-hexadecenoyl-coenzyme A as substrate by spectrophotometric analysis
[23] = Inhibition of Mycobacterium tuberculosis H37Rv mc2 6206 HadA/B expressed in Escherichia coli using trans-2-hexadecenoyl-coenzyme A as substrate by spectrophotometric analysis
[24] = biological target: DNA gyrase (Escherichia coli, UniProt P0AES4+P0AES6); test: Inhibition of Escherichia coli DNA gyrase; format: protein-complex assay
[25] = biological target: T3, Pantothenate synthetase (Mycobacterium tuberculosis, UniProt P9WIL5); test: Inhibition of Mycobacterium tuberculosis H37Ra pantothenate synthetase
T3 sequence (P9WIL5 whole entry): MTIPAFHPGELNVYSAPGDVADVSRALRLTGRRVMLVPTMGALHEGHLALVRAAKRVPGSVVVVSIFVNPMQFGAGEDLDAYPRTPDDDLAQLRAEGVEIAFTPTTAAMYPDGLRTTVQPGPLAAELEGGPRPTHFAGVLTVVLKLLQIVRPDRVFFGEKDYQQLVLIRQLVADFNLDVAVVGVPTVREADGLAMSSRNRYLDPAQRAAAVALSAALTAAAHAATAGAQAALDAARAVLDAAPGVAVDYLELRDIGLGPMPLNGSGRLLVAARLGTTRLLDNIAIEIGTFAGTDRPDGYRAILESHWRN

[26] = test system: Mycobacterium tuberculosis; test: Antibacterial activity against Mycobacterium tuberculosis H37Ra assessed as inhibition of bacterial growth; format: functional

O=C(/C=C/c1cc(Cl)ccc1O)c1ccc(Br)cc1
MIC [1]: 6.25 µg/mL

Cc1cn([C@H]2C[C@H](O)[C@@H](COP(=O)(O)O)O2)c(=O)[nH]c1=O [THYMIDINE MONOPHOSPHATE]
pIC50 [2]: 7.15

O=C(Nc1ccc(C(=O)O)c(O)c1)c1cncc(Cl)n1
MIC [3]: 3.13 µg/mL

COc1ccc(-c2nn(-c3ccc([N+](=O)[O-])cc3[N+](=O)[O-])c(N)c2C#N)cc1Oc1cccc(Br)c1C#N
MIC [4]: 0.98 µg/mL (≈ 1.7 µM) | pIC50 [5]: 6.54

O=c1/c(=C\c2ccc(Cl)cc2)sc2n1CN(C1=NS(=O)(=O)c3ccccc31)CN=2
MIC [4]: 2.28 µg/mL (≈ 5.12 µM)

Cc1cc(C(=O)N2CCN(c3nc(=O)c4cc(Cl)cc([N+](=O)[O-])c4s3)CC2)c2cc(Cl)ccc2n1
MIC [3]: 0.06 µg/mL

CC(C)(C)OC(=O)N1CCN(c2ccc(N3C[C@H](CNC(=O)c4ccc([N+](=O)[O-])o4)OC3=O)cc2F)CC1
MIC [3]: 2.34 µg/mL

CC(C)/N=c1\cc2n(-c3ccccc3)c3ccccc3nc-2cc1Nc1ccc(N2CCN(C)CC2)c(F)c1
MIC [6]: 0.08 µg/mL (≈ 0.154 µM) | MIC [3]: 0.625 µg/mL

NNC(=O)c1ccncc1 [ISONIAZID]
MIC [3]: 15.6 µg/mL | MIC [1]: 1.6 µg/mL | IC50 [7]: 1.6 µg/mL (≈ 11.7 µM)

CO[C@H]1C[C@@]2(C)C=C[C@H]3[C@H]4O[C@]2(/C(C)=C/[C@@H](C)[C@@H]([C@@H](C)O)OC1=O)[C@@H]3[C@H](O)[C@@H](C)[C@H]4OC(=O)c1ccc[nH]1
MIC [8]: 0.6 µM (≈ 0.318 µg/mL) | MIC [9]: 12.5 µM (≈ 6.62 µg/mL)

COC(=O)c1cc(-c2ccc(OC)c(NC(=O)c3cc(-c4cccc(Cl)c4)nc4ccccc34)c2)on1
MIC [10]: 0.12 µg/mL (≈ 0.233 µM)

C[C@H]1S[C@]2(CC[C@@H](c3ccccc3)CC2)N(NC(=O)[C@@H](O)c2ccccc2)C1=O
MIC [3]: < 6.25 µg/mL | inhibition of growth at 6.25 µg/mL [11]: 98%

CC1/C(=N\NC(N)=[Se])Nc2ccccc21 (stereo not drawn)
MIC [1]: 1.6 µg/mL

CCOC(=O)Cc1csc(N2C(=O)CSC2c2ccc(Br)cc2)n1 (stereo not drawn)
MIC [4]: 0.48 µg/mL (≈ 1.12 µM) | pIC50 [5]: 5.97

Cc1cc(C(=O)N2CCN(c3nc(=O)c4cc(F)cc([N+](=O)[O-])c4s3)CC2)c2cc(Br)ccc2n1
MIC [3]: 0.06 µg/mL

O=C1C(Cl)=C(Cl)C2(OC(c3c(Cl)cccc3Cl)=NN2c2ccccc2)c2ccccc21 (stereo not drawn)
MIC [3]: 15.6 µg/mL

Cc1cc(C(=O)N2CCN(c3nc(=O)c4cc(Cl)cc([N+](=O)[O-])c4s3)CC2)c2cc(Br)ccc2n1
MIC [3]: 0.06 µg/mL

CC(=O)c1c(C)n(-c2ccc(C3CCNCC3)cc2)c2ccc(O)c(CN3CCCCC3)c12
MIC [1]: 0.125 µg/mL | half-life at 0.1 µM [12]: 58 min

C/C(=N\NC(=S)Nc1cccc(Cl)c1Cl)c1nc2cc([N+](=O)[O-])ccc2[nH]1
MIC [3]: 62.5 µg/mL

CC[C@@H](CO)NCCN[C@@H](CC)CO [ETHAMBUTOL]
MIC [1]: 7.64 µM and 1.6 µg/mL

O=C1Nc2ccccc2/C1=N\OCc1cn(Cc2ccc(F)cc2)nn1
MIC [13]: 0.78 µg/mL (≈ 2.22 µM)

Cc1cc(C(=O)N2CCN(c3nc(=O)c4cc(Br)cc([N+](=O)[O-])c4s3)CC2)c2cc(Cl)ccc2n1
MIC [3]: 0.12 µg/mL

O=C(N/N=C1\C(=O)N(Cc2ccccc2)c2ccccc21)c1cnc2cc(Cl)ccc2c1O
MIC [14]: 0.06 µg/mL (≈ 0.131 µM) | pIC50 [15]: 4.44

Cc1cc(C(=O)N2CCN(c3nc(=O)c4cc(C(F)(F)F)cc([N+](=O)[O-])c4s3)CC2)c2cc(Br)ccc2n1
MIC [3]: 0.12 µg/mL

C/C(=N\N=C(\N/N=C(\C)c1ccc(Cl)cc1)NC(=S)Nc1cccc2ccccc12)c1ccc(Cl)cc1
MIC [3]: 0.78 µM

O=C1C(C#Cc2ccccc2)=C(c2ccc(C(F)(F)F)cc2)C(=O)N1Cc1ccccn1
IC50 [16]: > 64 µg/mL | Activity [17]: 0.47 log10CFU | selectivity ratio [18]: 69.6 | MIC [3]: 0.92 µg/mL

O=C(/C=C/c1ccccc1)c1ccc(Br)cc1
MIC [1]: 6.25 µg/mL

N#Cc1cc(OCCOc2ccccc2)cc(-c2ccc(C(=O)O)o2)c1
pIC50 [19]: 4.92

O=C(/C=C/c1ccccc1[N+](=O)[O-])c1ccc(Br)cc1
MIC [1]: 6.25 µg/mL

O=C(c1ccc(Cl)cc1)C1[C@H]2CCCN2[C@]2(C(=O)Nc3ccc(Cl)cc32)C12c1ccccc1-n1c2nc2ccccc2c1=O (stereo partly drawn)
MIC [3]: 1.56 µg/mL

COc1ccc(NC(=O)CCCCCN/C(C)=C2/C(=O)C=C3Oc4c(C(C)=O)c(O)c(C)c(O)c4[C@]3(C)C2=O)cc1OC
MIC [3]: 5.3 µM

CO[C@H]1/C=C/O[C@@]2(C)Oc3c(C)c(O)c4c(O)c(c(/C=N/N5CCN(C)CC5)c(O)c4c3C2=O)NC(=O)/C(C)=C\C=C\[C@H](C)[C@H](O)[C@@H](C)[C@@H](O)[C@@H](C)[C@H](OC(C)=O)[C@@H]1C [RIFAMPIN]
MIC [3]: 0.97 µg/mL

CS(=O)(=O)N1CCN(c2ccc(N3C[C@H](CNC(=O)c4ccc([N+](=O)[O-])o4)OC3=O)cc2F)CC1
MIC [3]: 1.1 µg/mL

CC(=O)c1ccc(N2CN=c3s/c(=C/c4ccco4)c(=O)n3C2)cc1
MIC [4]: 2.49 µg/mL (≈ 7.05 µM)

CN1CCN(C(=O)c2cc3ccccc3[nH]2)CC1
MIC [1]: 3.12 µg/mL | growth inhibition (GI) [20]: 32%

Cc1cc(C(=O)N2CCN(c3nc(=O)c4cc(Br)cc([N+](=O)[O-])c4s3)CC2)c2cc(Br)ccc2n1
MIC [3]: 0.12 µg/mL

Cc1ccc(C(=O)C2[C@H]3CCCN3[C@]3(C(=O)Nc4ccccc43)C23c2ccccc2-n2c3nc3ccccc3c2=O)cc1 (stereo partly drawn)
MIC [3]: 1.56 µg/mL

Cc1nc2cc(C(F)(F)F)ccc2n1-c1ncc(C(F)(F)F)s1
MIC [3]: 0.28 µM

Cc1cc(N=Nc2ccc(O)cc2O)ccc1C(C)C
pIC50 [21]: 6.21

CS(=O)(=O)NC(=O)CCc1cn(-c2ccc(Br)cc2)nc1-c1ccc(Cl)cc1
inhibition [22]: inactive | pIC50 [23]: 6.89

Cc1cc(C(=O)N2CCN(c3nc(=O)c4cc(C(F)(F)F)cc([N+](=O)[O-])c4s3)CC2)c2cc(Cl)ccc2n1
MIC [3]: 0.12 µg/mL

O=C(/C=C/c1cccc(Oc2ccccc2)c1)c1ccc(Br)cc1
MIC [1]: 6.25 µg/mL

CC(=O)NC[C@H]1CN(c2ccc(N3CCOCC3)c(F)c2)C(=O)O1 [LINEZOLID]
MIC [3]: 1 µg/mL

CC(=O)c1c(C)n(-c2ccc(-c3ccccc3)cc2)c2ccc(O)c(CN3CCCCC3)c12
MIC [1]: 0.063 µg/mL | half-life at 0.1 µM [12]: 20.7 min

CCOC(=O)Cc1csc(N2C(=O)CSC2c2ccc(OC)cc2)n1 (stereo not drawn)
MIC [4]: 0.12 µg/mL (≈ 0.317 µM) | pIC50 [5]: 5.89

Clc1ccc(Cn2cc(COc3ccc(C4=NCCO4)cc3)nn2)cc1
pIC50 [24]: 7.08 | pIC50 [3]: 5.80

CCCCCCc1ccc(-c2cn(CC(=O)Cn3ccnc3[N+](=O)[O-])nn2)cc1
MIC [3]: 65.3 µM

CCOC(=O)C1=C(C)NC(=O)NC1c1ccccc1OCc1cn(CC(=O)c2ccc(Cl)cc2)nn1 (stereo not drawn)
MIC [1]: 6.13 µM

Cc1nc2sc3ccccc3n2c1C(=O)N1CCN(Cc2cn(-c3ccc(Cl)cc3Cl)nn2)CC1
pIC50 [25]: 5.69 | IC90 [26]: 15.2 µM | IC50 [7]: 1.6 µg/mL (≈ 3.04 µM)
